# Laboratory results: patent US7811760B2, “Vector and method for detecting the change in transcription amount” (priority 2006, dated 2010)
# Legend:
# SD-line rat AhR = target: T1, SD-line rat AhR (Rattus norvegicus, UniProt P41738, Q794H); assay: Reporter gene assay in Neuro2a with pTHE100×3/Luc and pcDNA4-rAhR; format: cell-based; settings: 1 to 10,000 pM TCDD
# T1 construct: The SD-line rat AhR gene-coding region was amplified from the reverse-transcribed sample by means of PCR; V5-His (C-terminal tag of vector pcDNA4/V5-His B); expressed in transfected cells; host or cells: mouse neuroblastoma Neuro2a, transient transfection with LIPOFECTAMINE 2000
# T1 sequence (P41738 10-853 Q794H): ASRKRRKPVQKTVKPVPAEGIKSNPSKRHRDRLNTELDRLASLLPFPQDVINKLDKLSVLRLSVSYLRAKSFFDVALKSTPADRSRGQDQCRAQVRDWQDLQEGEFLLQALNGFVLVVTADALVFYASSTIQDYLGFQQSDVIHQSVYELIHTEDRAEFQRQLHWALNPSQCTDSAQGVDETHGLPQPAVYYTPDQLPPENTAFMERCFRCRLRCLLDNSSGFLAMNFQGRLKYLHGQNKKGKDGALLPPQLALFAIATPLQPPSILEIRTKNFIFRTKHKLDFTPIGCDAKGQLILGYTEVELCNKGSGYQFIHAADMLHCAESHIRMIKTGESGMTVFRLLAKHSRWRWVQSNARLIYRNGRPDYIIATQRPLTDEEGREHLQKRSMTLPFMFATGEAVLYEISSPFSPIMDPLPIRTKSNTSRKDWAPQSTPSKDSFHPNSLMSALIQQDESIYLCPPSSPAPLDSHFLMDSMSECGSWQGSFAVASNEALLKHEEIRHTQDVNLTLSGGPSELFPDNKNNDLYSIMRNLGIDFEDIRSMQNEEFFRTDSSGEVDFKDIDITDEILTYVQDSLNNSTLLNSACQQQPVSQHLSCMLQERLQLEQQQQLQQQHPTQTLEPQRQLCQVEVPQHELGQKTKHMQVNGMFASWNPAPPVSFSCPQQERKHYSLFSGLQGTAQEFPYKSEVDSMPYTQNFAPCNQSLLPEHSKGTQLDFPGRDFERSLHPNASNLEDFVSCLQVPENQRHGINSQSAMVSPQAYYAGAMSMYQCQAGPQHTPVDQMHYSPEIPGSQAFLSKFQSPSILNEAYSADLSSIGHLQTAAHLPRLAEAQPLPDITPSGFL
# Description: (§1) In Example 8, the vector pTHE100×3/Luc (Example 7, FIG. 7A) was used as the vector containing a reporter gene, and Neuro2a was used as the cell.
# (§2) In this Example, a combination of pcDNA4-rAhR (Example 1) containing the SD-line rat AhR gene and pcDNA4/V5-His/lacZ (Invitrogen), as well as a combination of PGV-mAhR (Example 1) containing the C57/BL6-line mouse AhR gene and pcDNA4/V5-His/lacZ were used as the vectors for introducing into the cell together with pTHE100×3/Luc. pcDNA4-rAhR was introduced into the cell for constitutive expression of the SD-line rat AhR (SEQ ID No: 10); PGV-mAhR was introduced into the cell for constitutive expression of C57/BL6-line mouse AhR (SEQ ID No: 11); and pcDNA4/V5-His/lacZ was introduced into the cell for normalization of the transfection efficiency of the vector.
# (§3) The vectors were introduced into the cell by using LIPOFECTAMINE 2000, similarly to the method described in Example 3. After the above vectors were introduced into the cell, the obtained cell was exposed to 1 to 10,000 pM of TCDD to examine the increase in expression amount of the reporter gene in response to TCDD.
# C57/BL6-line mouse AhR = target: T2, C57/BL6-line mouse AhR (Mus musculus, UniProt P30561); assay: Reporter gene assay in Neuro2a with pTHE100×3/Luc and PGV-mAhR; format: cell-based; settings: 1 to 10,000 pM TCDD
# T2 construct: The AhR gene-coding region of the C57/BL6-line mouse was amplified from the reverse-transcribed sample by means of PCR; expressed in transfected cells; host or cells: mouse neuroblastoma Neuro2a, transient transfection with LIPOFECTAMINE 2000
# T2 sequence (P30561 10-805 M324I/F348L/P471L/N533S/M589L/T758A limits assumed): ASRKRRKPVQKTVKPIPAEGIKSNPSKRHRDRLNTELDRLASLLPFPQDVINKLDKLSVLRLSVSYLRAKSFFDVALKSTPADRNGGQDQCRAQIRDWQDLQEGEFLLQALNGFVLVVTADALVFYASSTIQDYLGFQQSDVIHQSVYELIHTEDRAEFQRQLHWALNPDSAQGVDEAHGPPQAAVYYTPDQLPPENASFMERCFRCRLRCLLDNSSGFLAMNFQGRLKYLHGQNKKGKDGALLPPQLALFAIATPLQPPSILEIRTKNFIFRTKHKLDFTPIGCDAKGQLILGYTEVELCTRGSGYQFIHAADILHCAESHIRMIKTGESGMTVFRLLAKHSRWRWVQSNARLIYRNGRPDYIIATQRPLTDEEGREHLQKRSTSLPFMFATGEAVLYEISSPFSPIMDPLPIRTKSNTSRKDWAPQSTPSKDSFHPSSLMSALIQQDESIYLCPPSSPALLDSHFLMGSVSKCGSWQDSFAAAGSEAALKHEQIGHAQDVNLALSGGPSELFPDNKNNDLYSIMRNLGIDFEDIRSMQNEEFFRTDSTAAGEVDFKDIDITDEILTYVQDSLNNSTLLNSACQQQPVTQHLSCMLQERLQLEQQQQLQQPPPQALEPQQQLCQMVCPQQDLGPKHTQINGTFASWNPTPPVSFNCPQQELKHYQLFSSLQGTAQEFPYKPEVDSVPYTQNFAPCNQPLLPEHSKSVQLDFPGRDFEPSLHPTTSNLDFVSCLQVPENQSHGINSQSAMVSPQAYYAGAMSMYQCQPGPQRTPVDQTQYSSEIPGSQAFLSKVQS
# Description: as §1, §2, §3
smiles,measurement,setting,value
"Clc1cc2c(cc1Cl)Oc1cc(Cl)c(Cl)cc1O2 [TCDD, 2,3,7,8-tetrachlorodibenzo-p-dioxine]","transcriptional response, rat AhR compared with mouse AhR",SD-line rat AhR,transcriptional response greater than that of the C57/BL6-line mouse AhR
same,induction of transcription of the reporter gene in response to TCDD,SD-line rat AhR; SD-line rat AhR,effective in inducing transcription of the reporter gene
same,induction of transcription of the reporter gene in response to TCDD,C57/BL6-line mouse AhR,effective in inducing transcription of the reporter gene
